Data published in PubChem BioAssay (NCI).
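Five compound concentrations were applied to cells in 96-well plates for 48 hours; endpoints were derived by simple linear interpolation of the resulting dose-response curve. Here, GI50 denotes the concentration required for 50% inhibition of growth. TGI denotes the concentration required for complete inhibition of growth.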

Key:
Test in all cases: NCI anticancer screen, dose series, 48 h
HCC-2998 colon = tested on: HCC-2998 colon
SK-MEL-2 melanoma = tested on: SK-MEL-2 melanoma
EKVX NSCLC = tested on: EKVX NSCLC
HOP-92 NSCLC = tested on: HOP-92 NSCLC
A549 NSCLC = tested on: A549 NSCLC
MDA-MB-231 breast = tested on: MDA-MB-231 breast
BT-549 breast = tested on: BT-549 breast
IGROV1 ovarian = tested on: IGROV1 ovarian
U251 CNS = tested on: U251 CNS
NCI-H226 lung = tested on: NCI-H226 lung
MDA-MB-468 breast = tested on: MDA-MB-468 breast
SN12C renal = tested on: SN12C renal
786-0 renal = tested on: 786-0 renal
UACC-257 melanoma = tested on: UACC-257 melanoma
UO-31 renal = tested on: UO-31 renal
SF-295 CNS = tested on: SF-295 CNS
MALME-3M melanoma = tested on: MALME-3M melanoma
SF-539 CNS = tested on: SF-539 CNS
HOP-62 NSCLC = tested on: HOP-62 NSCLC
OVCAR-5 ovarian = tested on: OVCAR-5 ovarian
COLO 205 colon = tested on: COLO 205 colon
HCT-116 colon = tested on: HCT-116 colon
MDA-MB-435 = tested on: MDA-MB-435
SK-MEL-28 melanoma = tested on: SK-MEL-28 melanoma
SK-MEL-5 melanoma = tested on: SK-MEL-5 melanoma
MOLT-4 leukemia = tested on: MOLT-4 leukemia
NCI-H522 lung = tested on: NCI-H522 lung
K-562 leukemia = tested on: K-562 leukemia
CCRF-CEM leukemia = tested on: CCRF-CEM leukemia
HCT-15 colon = tested on: HCT-15 colon
T-47D breast = tested on: T-47D breast
NCI-H460 lung = tested on: NCI-H460 lung
SNB-19 CNS = tested on: SNB-19 CNS
DU-145 prostate = tested on: DU-145 prostate
SK-OV-3 ovarian = tested on: SK-OV-3 ovarian
RXF 393 renal = tested on: RXF 393 renal
HT29 colon = tested on: HT29 colon
UACC-62 melanoma = tested on: UACC-62 melanoma
RPMI-8226 leukemia = tested on: RPMI-8226 leukemia
SR leukemia = tested on: SR leukemia
TK-10 renal = tested on: TK-10 renal
SF-268 CNS = tested on: SF-268 CNS
OVCAR-8 ovarian = tested on: OVCAR-8 ovarian
OVCAR-4 ovarian = tested on: OVCAR-4 ovarian
MCF7 breast = tested on: MCF7 breast
LOX IMVI melanoma = tested on: LOX IMVI melanoma
CAKI-1 renal = tested on: CAKI-1 renal
HL-60(TB) leukemia = tested on: HL-60(TB) leukemia
SNB-75 CNS = tested on: SNB-75 CNS
OVCAR-3 ovarian = tested on: OVCAR-3 ovarian
ACHN renal = tested on: ACHN renal
KM12 colon = tested on: KM12 colon
A498 renal = tested on: A498 renal
PC-3 prostate = tested on: PC-3 prostate
HS 578T breast = tested on: HS 578T breast
NCI-H23 lung = tested on: NCI-H23 lung
SW-620 colon = tested on: SW-620 colon
M14 melanoma = tested on: M14 melanoma
NCI/ADR-RES ovarian = tested on: NCI/ADR-RES ovarian

## COc1cc2cc(C(=O)N3C[C@@H](CCl)c4c3cc(OC(=O)N(CCC(=O)N3CCN(C)CC3)C3CCCCC3)c3ccccc43)[nH]c2c(OC)c1OC
HCC-2998 colon
  GI50: 1520 nM
  TGI: 3.48 µM
SK-MEL-2 melanoma
  GI50: 1980 nM
  TGI: 3.5 µM
EKVX NSCLC
  GI50: 1950 nM
  TGI: 5.89 µM
HOP-92 NSCLC
  GI50: 2500 nM
  TGI: 9.46 µM
A549 NSCLC
  GI50: 1990 nM
  TGI: > 100 µM
MDA-MB-231 breast
  GI50: 3.07 µM
  TGI: 8.63 µM
BT-549 breast
  GI50: 1590 nM
  TGI: 4.22 µM
IGROV1 ovarian
  GI50: 2.31 µM
  TGI: 7.76 µM
U251 CNS
  GI50: 1510 nM
  TGI: 4.46 µM
NCI-H226 lung
  GI50: 1440 nM
  TGI: 4.21 µM
MDA-MB-468 breast
  GI50: 688 nM
  TGI: 2.29 µM
SN12C renal
  GI50: 1200 nM
  TGI: 10.2 µM
786-0 renal
  GI50: 1730 nM
  TGI: 10.1 µM
UACC-257 melanoma
  GI50: 1990 nM
  TGI: 4.63 µM
UO-31 renal
  GI50: 1880 nM
  TGI: 6.34 µM
SF-295 CNS
  GI50: 1550 nM
  TGI: 6.79 µM
MALME-3M melanoma
  GI50: 1570 nM
  TGI: 3.05 µM
SF-539 CNS
  GI50: 1310 nM
  TGI: 3.87 µM
HOP-62 NSCLC
  GI50: 0.594 µM
  TGI: 9.11 µM
OVCAR-5 ovarian
  GI50: 5.11 µM
  TGI: 27.9 µM
COLO 205 colon
  GI50: 1370 nM
  TGI: 2800 nM
HCT-116 colon
  GI50: 1500 nM
  TGI: 9.94 µM
MDA-MB-435
  GI50: 1780 nM
  TGI: 3.65 µM
SK-MEL-28 melanoma
  GI50: 3580 nM
  TGI: 8.96 µM
SK-MEL-5 melanoma
  GI50: 1640 nM
  TGI: 3220 nM
MOLT-4 leukemia
  GI50: 594 nM
  TGI: 10.1 µM
NCI-H522 lung
  GI50: 1700 nM
  TGI: 4.53 µM
K-562 leukemia
  GI50: 677 nM
  TGI: 20.3 µM
CCRF-CEM leukemia
  GI50: 993 nM
  TGI: 12.1 µM
HCT-15 colon
  GI50: 1730 nM
  TGI: 6.71 µM
T-47D breast
  GI50: 1900 nM
  TGI: 6.63 µM
NCI-H460 lung
  GI50: 512 nM
  TGI: 10.7 µM
SNB-19 CNS
  GI50: 2.22 µM
  TGI: 20 µM
DU-145 prostate
  GI50: 0.456 µM
  TGI: 4.63 µM
SK-OV-3 ovarian
  GI50: 2150 nM
  TGI: 9.35 µM
RXF 393 renal
  GI50: 1060 nM
  TGI: 2460 nM
HT29 colon
  GI50: 1520 nM
  TGI: 4.24 µM
UACC-62 melanoma
  GI50: 1530 nM
  TGI: 3.28 µM
RPMI-8226 leukemia
  GI50: 1470 nM
  TGI: 5.08 µM
SR leukemia
  GI50: 276 nM
  TGI: 1930 nM
TK-10 renal
  GI50: 2.85 µM
  TGI: 8.53 µM
SF-268 CNS
  GI50: 1540 nM
  TGI: 7.45 µM
OVCAR-8 ovarian
  GI50: 1660 nM
  TGI: 10.1 µM
OVCAR-4 ovarian
  GI50: 2340 nM
  TGI: 6.35 µM
MCF7 breast
  GI50: 318 nM
  TGI: 2630 nM
LOX IMVI melanoma
  GI50: 1100 nM
  TGI: 2.76 µM
CAKI-1 renal
  GI50: 1.49 µM
  TGI: 7.65 µM
HL-60(TB) leukemia
  GI50: 751 nM
  TGI: 3730 nM
SNB-75 CNS
  GI50: 1.29 µM
  TGI: 3.7 µM
OVCAR-3 ovarian
  GI50: 2100 nM
  TGI: 4.67 µM
ACHN renal
  GI50: 493 nM
  TGI: 10.7 µM
KM12 colon
  GI50: 2070 nM
  TGI: 7.25 µM
A498 renal
  GI50: 2770 nM
  TGI: 5.27 µM
PC-3 prostate
  GI50: 3140 nM
  TGI: > 100 µM
HS 578T breast
  GI50: 2420 nM
  TGI: 7.11 µM
NCI-H23 lung
  GI50: 471 nM
  TGI: 1930 nM
SW-620 colon
  GI50: 1890 nM
  TGI: 12.6 µM
M14 melanoma
  GI50: 1520 nM
  TGI: 4.24 µM

## C[C@H]1[C@H](OC(=O)CCC(=O)N(CCCc2cn(-c3ccc(CN4CCOCC4)cc3)nn2)CCNc2ccnc3cc(Cl)ccc23)O[C@@H]2OC3(C)CC[C@H]4[C@H](C)CC[C@@H]1[C@@]24OO3
HCC-2998 colon
  GI50: 3130 nM
  TGI: > 11.8 µM
SK-MEL-2 melanoma
  GI50: 3160 nM
  TGI: > 11.8 µM
EKVX NSCLC
  GI50: 1080 nM
  TGI: > 11.8 µM
HOP-92 NSCLC
  GI50: 506 nM
  TGI: 4.65 µM
A549 NSCLC
  GI50: 3250 nM
  TGI: > 11.8 µM
MDA-MB-231 breast
  GI50: 3.05 µM
  TGI: > 11.8 µM
BT-549 breast
  GI50: 899 nM
  TGI: 8.42 µM
IGROV1 ovarian
  GI50: 3.73 µM
  TGI: > 11.8 µM
U251 CNS
  GI50: 1420 nM
  TGI: 8.27 µM
NCI-H226 lung
  GI50: 2540 nM
  TGI: > 11.8 µM
MDA-MB-468 breast
  GI50: 943 nM
  TGI: 4.92 µM
SN12C renal
  GI50: 2980 nM
  TGI: > 11.8 µM
786-0 renal
  GI50: 1530 nM
  TGI: 3.54 µM
UACC-257 melanoma
  GI50: 1190 nM
  TGI: 2.82 µM
UO-31 renal
  GI50: 1980 nM
  TGI: > 11.8 µM
SF-295 CNS
  GI50: 2470 nM
  TGI: > 11.8 µM
MALME-3M melanoma
  GI50: 1510 nM
  TGI: 3.04 µM
SF-539 CNS
  GI50: 1590 nM
  TGI: 3.23 µM
HOP-62 NSCLC
  GI50: 10.8 µM
  TGI: > 11.8 µM
OVCAR-5 ovarian
  GI50: 1.31 µM
  TGI: > 11.8 µM
COLO 205 colon
  GI50: 623 nM
  TGI: > 11800 nM
HCT-116 colon
  GI50: 372 nM
  TGI: 2.68 µM
MDA-MB-435
  GI50: 800 nM
  TGI: 8.91 µM
SK-MEL-28 melanoma
  GI50: 1430 nM
  TGI: 3.62 µM
SK-MEL-5 melanoma
  GI50: 1190 nM
  TGI: 2580 nM
MOLT-4 leukemia
  GI50: 317 nM
  TGI: 3.27 µM
NCI-H522 lung
  GI50: 505 nM
  TGI: > 11.8 µM
K-562 leukemia
  GI50: 330 nM
  TGI: 2.39 µM
CCRF-CEM leukemia
  GI50: 1020 nM
  TGI: > 11.8 µM
HCT-15 colon
  GI50: 389 nM
  TGI: 4.19 µM
T-47D breast
  GI50: 460 nM
  TGI: > 11.8 µM
NCI-H460 lung
  GI50: 2200 nM
  TGI: 9.5 µM
SNB-19 CNS
  GI50: 7.35 µM
  TGI: > 11.8 µM
DU-145 prostate
  GI50: 6.84 µM
  TGI: > 11.8 µM
NCI/ADR-RES ovarian
  GI50: 2640 nM
  TGI: > 11.8 µM
SK-OV-3 ovarian
  GI50: > 11800 nM
  TGI: > 11.8 µM
HT29 colon
  GI50: 745 nM
  TGI: 3.88 µM
UACC-62 melanoma
  GI50: 1150 nM
  TGI: > 11.8 µM
RPMI-8226 leukemia
  GI50: 406 nM
  TGI: 5.62 µM
SR leukemia
  GI50: 408 nM
  TGI: 2470 nM
TK-10 renal
  GI50: 11.7 µM
  TGI: > 11.8 µM
SF-268 CNS
  GI50: 2720 nM
  TGI: > 11.8 µM
OVCAR-8 ovarian
  GI50: 801 nM
  TGI: > 11.8 µM
OVCAR-4 ovarian
  GI50: 869 nM
  TGI: > 11.8 µM
MCF7 breast
  GI50: 821 nM
  TGI: > 11800 nM
LOX IMVI melanoma
  GI50: 692 nM
  TGI: 3.54 µM
CAKI-1 renal
  GI50: 4.56 µM
  TGI: > 11.8 µM
HL-60(TB) leukemia
  GI50: 359 nM
  TGI: 1440 nM
SNB-75 CNS
  GI50: 11.6 µM
  TGI: > 11.8 µM
OVCAR-3 ovarian
  GI50: 681 nM
  TGI: > 11.8 µM
ACHN renal
  GI50: 2740 nM
  TGI: > 11.8 µM
KM12 colon
  GI50: 596 nM
  TGI: > 11.8 µM
A498 renal
  GI50: > 11800 nM
  TGI: > 11.8 µM
PC-3 prostate
  GI50: 234 nM
  TGI: > 11.8 µM
HS 578T breast
  GI50: 1230 nM
  TGI: 8.09 µM
NCI-H23 lung
  GI50: 2280 nM
  TGI: > 11800 nM
SW-620 colon
  GI50: 533 nM
  TGI: > 11.8 µM
M14 melanoma
  GI50: 1590 nM
  TGI: 3.45 µM
